Data on 2 compounds can be found in patent publication US12599604B2, “Application of JAK inhibitor in kidney disease” (JIANGSU HENGRUI PHARMACEUTICALS CO., LTD., priority 2020, dated 2026).

The target in assay [1] is Janus kinase subtype 1 (Homo sapiens, UniProt P23458). The settings on record: background statement, no data; cited from earlier work.
Assay [2] deals with ischemia-reperfusion mouse models. As to the kind of experiment: Ischemia-reperfusion models in mice (Examples 1 and 2). Type of assay: in vivo. The method, then: After arrival and subsequent 7-day acclimation, the animals were randomly grouped. Except the animals in the control group, all other animals needed to be modeled. On day −1, the mice in each group were administered by gavage twice a day (BID). On the day of surgery (day 0), the mice underwent surgery post administration in the morning. On day 1, the dosing was continued, and on day 2, the endpoint treatment was performed. The mice were subjected to blood collection 24 hours and 48 hours post surgery, and for the endpoint treatment, their kidneys were taken and fixed in a formaldehyde solution for subsequent HE pathological detection.
The specific steps of the ischemia-reperfusion surgery were as follows: the mice were anesthetized with 4% chloral hydrate (10 ml/kg, ip) and secured in a prone position. An incision was made on the back and the right kidney was isolated while ensuring that the adrenal gland and ureter were not injured. The renal artery and renal vein were ligated and the right kidney was excised. The left kidney was isolated, and the renal arterial and venous tracts were carefully separated and clipped for 30 min using a mini bulldog clamp, and then the clamp was loosened. The skin was sutured layer by layer with a needle and thread, and the mice were returned to their cages for recovery.
(§1) The effects of the compounds on the kidney were then evaluated.

The subject of assay [3] is LPS-induced acute kidney injury mouse models. Description: Lipopolysaccharide (LPS)-induced acute kidney disease models (Example 3). Type of assay: in vivo. The settings on record: FIG. 10. As to the method:
After arrival and subsequent 7-day acclimation, the animals were randomly grouped. Except the animals in the control group, all other animals needed to be modeled by intraperitoneal injection with LPS. From day −2 to day 0, the mice in each group were administered by gavage, BID. On the day of modeling (day 0), the animals were intraperitoneally injected with LPS (12 mpk) post administration in the morning. Blood samples were collected after 24 h, and creatinine and urea nitrogen levels were measured.
as §1

Assay [4] concerns cisplatin-induced acute kidney injury mouse models. As to the kind of experiment: Cisplatin-induced acute kidney disease models (Example 4). Type of assay: in vivo. The conditions noted are these: for mortality rate of the mice: day 7 post modeling, same dosage (2.5 mg/kg oral BID per the 4th table), n=10. As to the method: After arrival and subsequent 7-day acclimation, the animals were randomly grouped. Except the animals in the control group, all other animals needed to be modeled by intraperitoneal injection with cisplatin. From day −3 to day 0, the mice in each group were administered BID. On the day of modeling (day 0), the animals were intraperitoneally injected with cisplatin (15 mg/kg) post administration in the morning. The dosing was continued until day 7. After the modeling, serum and urine samples were collected from the animals on day 4 and day 7, respectively, to measure the blood creatinine, urea nitrogen, and urinary albumin/creatinine (UACR) levels.
as §1

Chain of Janus kinase subtype 1 (P23458 whole entry, the tested form may be a part): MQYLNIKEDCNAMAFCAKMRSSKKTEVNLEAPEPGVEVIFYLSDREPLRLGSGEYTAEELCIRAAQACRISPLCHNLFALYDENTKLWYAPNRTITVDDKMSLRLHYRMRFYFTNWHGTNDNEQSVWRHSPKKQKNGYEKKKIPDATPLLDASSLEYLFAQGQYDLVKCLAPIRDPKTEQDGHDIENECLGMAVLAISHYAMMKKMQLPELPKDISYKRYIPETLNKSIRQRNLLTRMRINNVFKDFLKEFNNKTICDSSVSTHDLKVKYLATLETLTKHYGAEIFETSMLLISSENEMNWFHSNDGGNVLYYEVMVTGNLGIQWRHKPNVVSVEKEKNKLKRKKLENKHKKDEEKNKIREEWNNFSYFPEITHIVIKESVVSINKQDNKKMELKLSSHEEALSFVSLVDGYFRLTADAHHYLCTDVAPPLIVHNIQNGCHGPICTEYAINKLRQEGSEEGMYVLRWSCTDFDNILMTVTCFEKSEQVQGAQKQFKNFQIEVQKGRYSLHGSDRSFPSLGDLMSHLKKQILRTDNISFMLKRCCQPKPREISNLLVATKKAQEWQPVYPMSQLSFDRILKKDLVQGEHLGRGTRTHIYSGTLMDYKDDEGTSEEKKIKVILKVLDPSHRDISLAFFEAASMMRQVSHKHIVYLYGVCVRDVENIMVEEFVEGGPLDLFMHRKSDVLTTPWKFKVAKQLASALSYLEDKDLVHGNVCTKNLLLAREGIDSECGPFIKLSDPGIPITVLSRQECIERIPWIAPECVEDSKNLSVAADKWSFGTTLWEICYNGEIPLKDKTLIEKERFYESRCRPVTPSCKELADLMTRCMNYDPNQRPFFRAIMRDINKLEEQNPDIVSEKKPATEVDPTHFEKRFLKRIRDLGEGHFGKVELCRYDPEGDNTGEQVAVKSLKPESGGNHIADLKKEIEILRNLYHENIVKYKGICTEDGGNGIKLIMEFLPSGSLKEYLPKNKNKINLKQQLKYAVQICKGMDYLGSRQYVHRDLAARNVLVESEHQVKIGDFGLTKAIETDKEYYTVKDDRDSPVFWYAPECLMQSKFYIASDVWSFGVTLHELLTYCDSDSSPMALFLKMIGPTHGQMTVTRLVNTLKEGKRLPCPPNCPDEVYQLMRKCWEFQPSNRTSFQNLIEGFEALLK

With `COc1nsc(NC(=O)N2C[C@H]3C[C@H](N(C)c4ncnc5[nH]ccc45)C[C@H]3C2)n1` [Compound A, (3 aR,5 s,6aS)—N-(3-methoxy-1,2,4-thiadiazol-5-yl)-5-(methyl(7H-pyrrolo[2,3-d]pyrimidin-4-yl)amino)hexahydrocyclopenta[c]pyrrole-2(1H)-carb oxamide], the “inhibitory activity against Janus kinase subtype 1 relative to subtype 2 or subtype 3 (selectivity)” value in assay [1] is “stronger inhibitory activity against Janus kinase subtype 1 relative to Janus kinase subtype 2 or Janus kinase subtype 3”. Moreover, the “kidney/body weight ratio (renal compensatory hypertrophy)” value in assay [2] (Example 1, 10 mg/kg oral BID, 48 hours post modeling, FIG. 6) is “decreased kidney/body weight ratios”. Further, the “improvement of kidney/body weight ratio compared with compound B” value in assay [2] (Example 1, 10 mg/kg oral BID, FIG. 6) is listed as “had some advantages in improving the kidney/body weight ratios”. Further, the “body weight reduction caused by ischemia-reperfusion” value in assay [2] (Example 1, 10 mg/kg oral BID, compared with compound B at the same dosage, FIG. 5) is “smaller decrease in body weight”. Further, in assay [2] (Example 1, 10 mg/kg oral BID, scores 0-3, FIG. 9), the “kidney HE pathological scores” value is listed as “significantly improved the kidney HE pathological scores”. In assay [2] (Example 2, 5 mpk and 10 mpk oral BID, FIG. 8), the “blood creatinine and urea nitrogen, difference from the model group” value is given as “showed significant differences compared with the model group”. Moreover, the “renal hypertrophy, difference from the model group” value in assay [2] (Example 2, 5 mpk oral BID, FIG. 7) was “significant difference”. For the same compound, the “renal hypertrophy caused by ischemia-reperfusion (kidney/body weight ratio)” value in assay [2] (Example 2, all dosage groups 2.5 mpk, 5 mpk and 10 mpk oral BID, FIG. 7) was “could reduce the renal hypertrophy”. The “blood creatinine and urea nitrogen levels” value in assay [2] (Example 2, all dosage groups 2.5 mpk, 5 mpk and 10 mpk oral BID, FIG. 8) was “alleviated the increase in blood creatinine and urea nitrogen levels”. The “blood creatinine and urea nitrogen, protective effect compared with compound B” value in assay [2] (Example 2, same dosage (5 mg/kg oral BID), FIG. 8) is given as “stronger protective effect compared with compound B”. For the same compound, the “overall kidney protective effect compared with compound B” value in assay [2] (Examples 1 and 2) was “more excellent kidney protective effect”. Also, in assay [2] (Examples 1 and 2, compared with the model group), the “overall kidney protective effect (mortality, renal hypertrophy, kidney pathology, blood biochemical parameters)” value is “exhibited kidney protective effects”. In addition, in assay [3] (5 mpk and 10 mpk oral BID), the “kidney protective functions, 5 mpk and 10 mpk compared with 2.5 mpk group” value is listed as “Stronger kidney protective functions”. For the same compound, the “blood creatinine and urea nitrogen levels induced by LPS” value in assay [3] (different dosage groups (2.5, 5, 10 mg/kg oral BID), 24 h after LPS 12 mpk ip) was “significantly alleviated the increase in blood creatinine and urea nitrogen levels”. Also, in assay [4] (1.25, 2.5, 5 mg/kg oral BID, cisplatin 15 mg/kg ip, FIG. 11), the “blood creatinine and urinary albumin levels induced by cisplatin” value is “dose-dependently alleviated the increase in blood creatinine and urinary albumin levels”. Besides, in assay [4] (2.5 mpk and 5 mpk oral BID, FIG. 11), the “blood creatinine, blood urea nitrogen, urinary albumin/creatinine ratio, significance” value is listed as “showed significant differences”. Also, in assay [4] (cisplatin models, FIG. 11), the “kidney protective functions compared with compound B” value was “exhibited stronger kidney protective functions”. Also, the “mortality rate of the mice” value in assay [4] came to 40%. Moreover, in assay [4] (different dosages (1.25, 2.5, 5 mg/kg oral BID), model group 100% dead on day 6), the “mortality of the mice” value is listed as “significantly decreased the mortality”.

As for `CCS(=O)(=O)N1CC(CC#N)(n2cc(-c3ncnc4[nH]ccc34)cn2)C1` [Compound B, Baricitinib, reference compound], the “mortality rate of the mice” value in assay [4] was found to be 80%.
